ChEMBL document CHEMBL5614386, “Design, synthesis, and biological evaluation of novel 1-amido-2-one-4-thio-deoxypyranose as potential antitumor agents for multiple myeloma” (Bioorg Med Chem, 2024)
pIC50: −log10 of the molar value. Calls of active or inactive are those of the source. The calls are words filed in the database; no cut-off is given here.

How the values were obtained:
NCI-H929 [1] = experiment: Anti-proliferative activity against human NCI-H929 cells assessed as inhibition cell growth at 5 uM incubated for 72 hrs by CCK-8 assay; type: functional, cell-based
[2] = Anti-proliferative activity against human ARP-1cells assessed as cell growth inhibition incubated for 72 hrs by CCK-8 assay; details: ARP-1, 72 h
NCI-H929 [3] = experiment: Anti-proliferative activity against human NCI-H929 cells assessed as cell growth inhibition incubated for 72 hrs by CCK-8 assay; details: NCI-H929, 72 h
ARP-1 = experiment: Anti-proliferative activity against human ARP-1 cells assessed as inhibition cell growth at 5 uM incubated for 72 hrs by CCK-8 assay; type: functional, cell-based
NCI-H929 [4] = experiment: Induction of DNA damage in human NCI-H929 cells assessed as increase gamma-H2AX level at 10 to 20 uM incubated for 24 hrs by Western blot analysis; type: functional, cell-based; details: dose 10-20 µM
NCI-H929 [5] = experiment: Antitumor activity against human NCI-H929 cells xenografted in BALB/C nude mouse model assessed as reduction in tumor growth at 50 mg/kg, sc administrated every other day for 13 days; type: functional, organism-based; details: time 13.0 day
[6] = Toxicity in BALB/c mouse xenografted with human NCI-H929 cells assessed as effect on body weight at 50 mg/kg, sc administrated every other day for 13 days; type: organism-based; details: in vivo, 312 h, time 13 day
[7] = Toxicity in BALB/c mouse assessed as histological change in heart at 50 mg/kg, sc administrated every other day for 13 days by H and E staining based light microscopic analysis; type: organism-based; details: in vivo, 312 h, time 13 day
[8] = Toxicity in BALB/c mouse assessed as histological change in liver at 50 mg/kg, sc administrated every other day for 13 days by H and E staining based light microscopic analysis; type: organism-based; details: in vivo, 312 h, time 13 day
[9] = Toxicity in BALB/c mouse assessed as histological change in kidney at 50 mg/kg, sc administrated every other day for 13 days by H and E staining based light microscopic analysis; type: organism-based; details: in vivo, 312 h, time 13 day
[10] = Toxicity in BALB/c nude mouse xenografted with human NCI-H929 cells assessed as side effect at 50 mg/kg, sc administrated every other day for 13 days by H and E staining based light microscopic analysis; type: organism-based; details: in vivo, 312 h, time 13 day
[11] = Toxicity in BALB/c nude mouse xenografted with human NCI-H929 cells assessed as drug tolerance at 50 mg/kg, sc administrated every other day for 13 days by H and E staining based light microscopic analysis; type: organism-based; details: in vivo, 312 h, time 13 day
NCI-H929 [12] = experiment: Antitumor activity against human NCI-H929 cells xenografted in BALB/c nude mouse assessed as Ki-67 activity in tumor by microscopy based analysis; type: functional, cell-based
[13] = Toxicity in BALB/c mouse assessed as histological change in tumor at 50 mg/kg, sc administrated every other day for 13 days by H and E staining based light microscopic analysis; type: organism-based; details: in vivo, 312 h, time 13 day

pIC50 (NCI-H929 [3]): 5.91
SMILES: COc1ccc(SC2CC(=O)[C@H](NC(=O)c3ccc4c(c3)OCO4)O[C@@H]2COC(C)=O)cc1OC (some centres undefined)
Activity (NCI-H929 [1]): Active
pIC50 [2]: 5.68
Activity (ARP-1): Active
Activity (NCI-H929 [4]): Active
Activity (NCI-H929 [5]): Active
Activity [6]: Non-Toxic
Activity [7]: Non-Toxic
Activity [8]: Non-Toxic
Activity [9]: Non-Toxic
Activity [10]: Non-Toxic
Activity [11]: Non-Toxic
Activity (NCI-H929 [12]): Active
Activity [13]: Non-Toxic
